{"source": "patent EP2450062A1", "about": "“HYDROCOLLOID PLASTERS, INCLUDING VIABLE PROBIOTIC STRAINS OF LACTOBACILLUS SPP. AND USED FOR VARIOUS TYPES OF WOUNDS, INFECTED TISSUES, DRY WOUNDS AND DEEP WOUNDS” (Universidad De Concepcion, priority 2009, dated 2011)", "test_system": "Lactobacillus acidophilus LPV 31", "test": "bactericidal effect of glutaraldehyde in the films (bacterial counts)", "conditions": "GA concentrations studied, in gelatin films", "excerpt": "The cross-linking agent used is preferably, but not exclusively, glutaraldehyde (GA), due to its high efficiency stabilising collagen derivatives, its high reaction rate, and its ability to modify the physico-chemical properties of gelatin-based gels."}
{"smiles": "O=CCCCC=O", "note": "[GA, glutaraldehyde]", "values": [{"measurement": "bactericidal effect", "result": "do not have an observable bactericidal effect"}]}
